This is an account of results in PubChem BioAssay (NCI).

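Compound exposure: 48 hours, 5 concentrations, 96-well plates. Abbreviation: GI50, concentration required for 50% inhibition of growth. TGI denotes the concentration required for complete inhibition of growth.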

Among the test systems are SK-MEL-5 melanoma; CCRF-CEM leukemia; COLO 205 colon; NCI-H23 lung; BT-549 breast; CAKI-1 renal; HL-60(TB) leukemia; HCT-15 colon; RXF 393 renal; NCI-H522 lung.
Common to all, as to assay: NCI tumour cell line growth inhibition, 48 h

For `CNCCCNc1nc2ccccc2c2c(=O)c3cc(OC)ccc3sc12`, the GI50 in the test on SK-MEL-5 melanoma is 1.72 µM; in the test with CCRF-CEM leukemia, 2.39 µM; with COLO 205 colon it was 2.06 µM; in the test with NCI-H23 lung, 1.7 µM; in the test with BT-549 breast it was 12.8 µM; in the test on CAKI-1 renal it was 1.66 µM. The GI50 in the test on HL-60(TB) leukemia is 1.95 µM; with HCT-15 colon, 1.52 µM; in the test on RXF 393 renal, 1.56 µM; in the test with NCI-H522 lung, 1.84 µM. Also, the TGI came to 3.13 µM in the test on SK-MEL-5 melanoma; 6.08 µM in the test with CCRF-CEM leukemia; 4.4 µM in the test with COLO 205 colon; 3.19 µM in the test on NCI-H23 lung; 26.8 µM in the test on BT-549 breast; 3.17 µM with CAKI-1 renal. Besides, the TGI in the test on HL-60(TB) leukemia turned out to be 4.04 µM; in the test with HCT-15 colon, 2.95 µM; in the test with RXF 393 renal, 3.07 µM; in the test with NCI-H522 lung, 3.88 µM.

As for `NC(=O)c1ccc(Oc2nccc(-c3c(-c4ccc(F)cc4)ncn3C3CCNCC3)n2)cc1`, the GI50 with SK-MEL-5 melanoma, in the test on CCRF-CEM leukemia, in the test on COLO 205 colon, in the test on NCI-H23 lung, in the test with BT-549 breast and with CAKI-1 renal was > 25 µM each time. The GI50 with HL-60(TB) leukemia, with HCT-15 colon, in the test on RXF 393 renal and with NCI-H522 lung was > 25 µM each time. The TGI with SK-MEL-5 melanoma, with CCRF-CEM leukemia, with COLO 205 colon, in the test on NCI-H23 lung, in the test on BT-549 breast and in the test with CAKI-1 renal was > 25 µM in each case. Further, the TGI with HL-60(TB) leukemia, in the test with HCT-15 colon, with RXF 393 renal and in the test on NCI-H522 lung was > 25 µM each time.

As to `O=C(NCCCc1cn[nH]c1)c1ccc(-c2ccncc2)c(C#Cc2ccc(F)cc2)c1`, the GI50 is 2.3 µM in the test with SK-MEL-5 melanoma; < 0.01 µM in the test on CCRF-CEM leukemia; < 0.01 µM with COLO 205 colon; 14.5 µM in the test on NCI-H23 lung; 0.369 µM in the test with BT-549 breast; 6.92 µM with CAKI-1 renal. Also, the GI50 was 1.85 µM in the test with HL-60(TB) leukemia, < 0.01 µM with HCT-15 colon, 3.58 µM with RXF 393 renal and < 0.0406 µM with NCI-H522 lung. Also, the TGI was 16.6 µM in the test on SK-MEL-5 melanoma; > 100 µM in the test with CCRF-CEM leukemia; 46.1 µM with COLO 205 colon; > 100 µM with NCI-H23 lung; 60.9 µM in the test on BT-549 breast; > 100 µM in the test on CAKI-1 renal. The TGI in the test on HL-60(TB) leukemia is 14.6 µM; in the test with HCT-15 colon it was > 57.9 µM; with RXF 393 renal it was 19.8 µM; with NCI-H522 lung, 53.2 µM.

Consider `O=C(Nc1ccccc1I(=O)=O)C1CCCCC1`, for which the GI50 in the test with SK-MEL-5 melanoma, in the test on CCRF-CEM leukemia, in the test on COLO 205 colon, with NCI-H23 lung, in the test on BT-549 breast and in the test with CAKI-1 renal was > 100 µM in each case. Also, the GI50 is 57.6 µM with HL-60(TB) leukemia, > 100 µM in the test on HCT-15 colon, > 100 µM with RXF 393 renal and > 100 µM with NCI-H522 lung. The TGI in the test on SK-MEL-5 melanoma, in the test with CCRF-CEM leukemia, in the test with COLO 205 colon, in the test with NCI-H23 lung, in the test on BT-549 breast and in the test on CAKI-1 renal was > 100 µM throughout. For the same compound, the TGI in the test with HL-60(TB) leukemia, with HCT-15 colon, in the test on RXF 393 renal and in the test with NCI-H522 lung was > 100 µM each time.

Turning to `Cc1c(C#N)cccc1[C@@H](C)Nc1nnc(C)c2cnc(N3CCOCC3)cc12`, the GI50 in the test with SK-MEL-5 melanoma is 10.1 µM; in the test with CCRF-CEM leukemia, 39.2 µM; with COLO 205 colon, 22.4 µM; with NCI-H23 lung, 15.3 µM; with BT-549 breast, 13.1 µM; in the test with CAKI-1 renal it was 0.7 µM. For the same compound, the GI50 with HL-60(TB) leukemia is 22.8 µM; in the test with HCT-15 colon, 31.4 µM; with RXF 393 renal, 11.3 µM; in the test on NCI-H522 lung it was 17.5 µM. The TGI in the test on SK-MEL-5 melanoma is 21.9 µM; with CCRF-CEM leukemia it was > 100 µM; in the test on COLO 205 colon, 60.8 µM; in the test with NCI-H23 lung, > 100 µM; in the test with BT-549 breast, 48.2 µM; in the test on CAKI-1 renal, > 100 µM. Further, the TGI is 63.7 µM in the test on HL-60(TB) leukemia, > 100 µM in the test with HCT-15 colon, > 100 µM with RXF 393 renal and > 100 µM in the test with NCI-H522 lung.

Take `CC/C(Cc1ccccc1)=C(\c1ccc(OCCN2CCCC2)cc1)c1ccc(OC(=O)NCc2ccccc2)cc1`: the GI50 in the test on SK-MEL-5 melanoma was 1.71 µM; with CCRF-CEM leukemia, 2.83 µM; in the test with COLO 205 colon it was 2.11 µM; in the test on NCI-H23 lung it was 3.43 µM; with BT-549 breast, 1.79 µM; in the test on CAKI-1 renal it was 1.63 µM. For the same compound, the GI50 is 1.93 µM with HL-60(TB) leukemia, 1.58 µM with HCT-15 colon, 1.77 µM in the test on RXF 393 renal and 1.99 µM in the test with NCI-H522 lung. For the same compound, the TGI worked out at 3.11 µM with SK-MEL-5 melanoma; 7.56 µM with CCRF-CEM leukemia; 4.28 µM in the test on COLO 205 colon; 13.7 µM in the test with NCI-H23 lung; 3.47 µM with BT-549 breast; 3.02 µM in the test on CAKI-1 renal. Besides, the TGI in the test with HL-60(TB) leukemia stood at 3.98 µM; in the test on HCT-15 colon it was 3.07 µM; in the test on RXF 393 renal, 3.28 µM; in the test on NCI-H522 lung, 4.14 µM.

In the case of `O=C(/C=C/C=C/c1ccccc1)c1ccco1`, the GI50 in the test with SK-MEL-5 melanoma is 15.9 µM; in the test on CCRF-CEM leukemia, 10.2 µM; with COLO 205 colon it was 17.9 µM; in the test on NCI-H23 lung, 15 µM; in the test on BT-549 breast it was 17.2 µM; with CAKI-1 renal, 16 µM. Moreover, the GI50 was 10 µM in the test on HL-60(TB) leukemia, 11.6 µM with HCT-15 colon, 9.78 µM with RXF 393 renal and 13.2 µM in the test on NCI-H522 lung. The TGI was 29.4 µM in the test on SK-MEL-5 melanoma; 33.3 µM in the test with CCRF-CEM leukemia; 31.7 µM in the test with COLO 205 colon; 30.4 µM in the test on NCI-H23 lung; 40.7 µM with BT-549 breast; 32.8 µM with CAKI-1 renal. In addition, the TGI was 97.6 µM with HL-60(TB) leukemia, 26.3 µM in the test with HCT-15 colon, 24.6 µM with RXF 393 renal and 27 µM in the test on NCI-H522 lung.

As for `Cc1ccc([N+](=O)[O-])c2c(NCCNC(=O)c3cc(C(=O)NCCNc4ccnc5c(C)ccc([N+](=O)[O-])c45)n(C)n3)ccnc12`, the TGI is 58 µM in the test with SK-MEL-5 melanoma; > 46.4 µM in the test with CCRF-CEM leukemia; > 100 µM with COLO 205 colon; > 100 µM in the test with NCI-H23 lung; > 100 µM in the test with BT-549 breast; > 100 µM in the test with CAKI-1 renal. In addition, the TGI in the test on HL-60(TB) leukemia is > 76.1 µM; in the test with HCT-15 colon it was > 100 µM; with RXF 393 renal it was > 100 µM; in the test with NCI-H522 lung, > 100 µM.
